In series [1] the test system is ECHORC (Watergrass (Calif.)). Briefly: Preemergence weed control under flooded paddy conditions. In kind it is in vivo, Echinochloa oryzoides. As to conditions: rated 3-4 weeks after treatment. The essentials: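 Herbicidal effect is scored visually on a 0-9 scale against an untreated control, three to four weeks after compounds are pipetted into the flood water (1.5 to 3 cm deep) over seeds planted in silt loam at 0.5 cm depth. Rates: about 0.0313 to 0.500 kg/ha.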

The next series concerns ECHCG (Barnyardgrass). Briefly: Postemergence herbicidal evaluation. In kind it is in vivo, Echinochloa crus-galli. The note with it: for ECHCG herbicidal rating: postemergence. The essentials:
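Compound is applied as a foliar spray to seedlings about two weeks old, formulated in equal parts acetone and water with 0.5% TWEEN 20 and delivered at 40 psi to give about 0.0156–0.500 kg per hectare. Injury is rated visually 0–9 after four to five weeks.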

Series [2] relates to CHEAL (Lambsquarters, Common). Kind of series: Preemergence herbicidal evaluation. The format is in vivo, Chenopodium album. The note with it: rated 4-5 weeks after treatment. The essentials:
(§1)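 Steps: mix seeds into potting soil; plant atop ~1 inch soil; spray compound in aqueous acetone (~0.0156-0.500 kg/ha equivalent); maintain in greenhouse with watering; rate visually 0-9 versus control at 4-5 weeks.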

In series [3] the test system is ORYSAT (Rice, Tebonnet). Briefly: Preemergence herbicidal evaluation. The format is in vivo, Oryza sativa, (L.) Tebonnet. The note with it: rated 4-5 weeks after treatment. The essentials: as §1
Series [4] has as its system ORYSAT (Rice, Tebonnet). Kind of series: Rice tolerance to post-transplant applications, flooded paddy conditions (Table IV). The format is in vivo, Oryza sativa, (L.) Tebonnet. The essentials:
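With weeds 3 to 5 cm tall and rice at the 1.5 to 2.5 leaf stage, containers were flooded and water held 1.5 to 3 cm above soil. Compounds in 50/50 v/v aqueous/acetone went into the flood water at about 0.0313 to 0.500 kg/ha a.i. Effects were visually rated 0–9 against controls after three to four weeks in the greenhouse.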

Series [5] deals with ORYSAT (Rice, Tebonnet). Kind of series: Rice tolerance to post-transplant applications, flooded paddy conditions (Table III). In kind it is in vivo, Oryza sativa, (L.) Tebonnet. The essentials:
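Injury scored 0-9 by eye against untreated control, judging stand, vigor, malformation, size and chlorosis, three to four weeks after treatment. Compound in 50/50 aqueous/acetone, about 0.0313 to 0.500 kg/ha, was applied to paddy water (1.5 to 3 cm depth) three days after transplanting paired ten-day-old Tebonnet rice seedlings.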

The subject of another series is CYPSE (Flatsedge). Kind of series: Preemergence weed control under flooded paddy conditions. The note with it: rated 3-4 weeks after treatment. The format is in vivo, Cyperus serotinus. The essentials: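 Values are visual 0-9 scores against a control for a preemergence application into paddy flood water at about 0.0313 to 0.500 kg/ha. Greenhouse duration was three to four weeks.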

In a further series the test system is MOOVA (Monochoria). Briefly: Postemergence weed control under flooded paddy conditions. As to conditions: postemergence weeds, 3-4 weeks after treatment. The format is in vivo, Monochoria vaginalis. The essentials: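 Flood-water application, about 0.0313–0.500 kg/ha a.i. in aqueous/acetone 50/50 v/v; water depth 1.5–3 cm throughout. Weeds 3–5 cm, rice 1.5–2.5 leaf. Greenhouse; 0–9 visual rating vs control at 3–4 wk.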

Consider `CCOC(=O)CN1C(=O)C(=Cc2ccc(F)cc2)SC1=Nc1cc(-n2c(=O)cc(C(F)(F)F)n(C)c2=O)c(F)cc1Cl` [Compound 21, Ethyl 2-{{2-chloro-5-[3,6-dihydro-3-methyl-2,6-dioxo-4-(trifluoromethyl)-1(2H)-pyrimidinyl]-4-fluorophenyl}imino}-5-(p-fluorobenzylidene)-4-oxo-3-thiazolidineacetate], for which the “Herbicidal rating ECHORC” value in series [1] (0.1160 kg/ha) was found to be 2.0; in series [1] (0.2310 kg/ha), 4.0; in series [1] (0.4630 kg/ha), 5.0. Also, the ECHCG herbicidal rating amounted to 1.0 with ECHCG (Barnyardgrass) (rate 0.0158 kg/ha), 2.0 with ECHCG (Barnyardgrass) (rate 0.0315 kg/ha) and 2.0 in the series on ECHCG (Barnyardgrass) (rate 0.0630 kg/ha). Also, in series [2] (rate 0.2500 kg/ha), the “CHEAL preemergence herbicidal rating” value stood at 9.0. Moreover, the “ORYSAT preemergence herbicidal rating” value with ORYSAT (Rice, Tebonnet) [3] (rate 0.2500 kg/ha) stood at 0.0. Besides, the “Herbicidal rating ORYSAT (rice tolerance)” value in the series on ORYSAT (Rice, Tebonnet) [4] (in vivo) turned out to be 0.0; in the series on ORYSAT (Rice, Tebonnet) [5] (in vivo), 0.0. The “Herbicidal rating CYPSE” value with CYPSE (Flatsedge) (0.1160 kg/ha), in the series on CYPSE (Flatsedge) (0.2310 kg/ha) and with CYPSE (Flatsedge) (0.4630 kg/ha) was 0.0 throughout. The “Herbicidal rating MOOVA” value in the series on MOOVA (Monochoria) (rate 0.1160 kg/ha), in the series with MOOVA (Monochoria) (rate 0.2310 kg/ha) and in the series with MOOVA (Monochoria) (rate 0.4630 kg/ha) was 0.0 each time.
In the case of `O=C(O)CC1SC(=Nc2cc(N3C(=O)C4=C(CCCC4)C3=O)c(F)cc2Cl)N(CC(=O)O)C1=O` (stereo not drawn) [Compound 48, 2-{[2-Chloro-5-(1-cyclohexene-1,2-dicarboximido)-4-fluorophenyl]imino}-4-oxo-3,5-thiazolidinediacetic acid], the “Herbicidal rating ECHORC” value in series [1] (0.1250 kg/ha) is listed as 3.0; in series [1] (0.2500 kg/ha), 6.0. Also, the “Postemergence herbicidal rating ECHCG” value with ECHCG (Barnyardgrass) (Rate 0.0156 kg/ha) amounted to 0.0; in the series on ECHCG (Barnyardgrass) (Rate 0.0313 kg/ha), 2.0; in the series on ECHCG (Barnyardgrass) (Rate 0.0625 kg/ha) it was 2.0. For the same compound, the “Preemergence herbicidal rating CHEAL” value in series [2] (rate 0.0156 kg/ha), in series [2] (rate 0.0313 kg/ha), in series [2] (rate 0.0625 kg/ha), in series [2] (rate 0.1250 kg/ha) and in series [2] (rate 0.2500 kg/ha) was 9.0 each time. Moreover, the “Preemergence herbicidal rating ORYSAT” value with ORYSAT (Rice, Tebonnet) [3] (rate 0.0156 kg/ha) amounted to 0.0; with ORYSAT (Rice, Tebonnet) [3] (rate 0.0313 kg/ha), 0.0; in the series with ORYSAT (Rice, Tebonnet) [3] (rate 0.0625 kg/ha) it was 0.0; with ORYSAT (Rice, Tebonnet) [3] (rate 0.1250 kg/ha), 0.0; in the series on ORYSAT (Rice, Tebonnet) [3] (rate 0.2500 kg/ha) it was 3.0. Further, the “Herbicidal rating ORYSAT (rice tolerance)” value was determined as 4.0 in the series on ORYSAT (Rice, Tebonnet) [4] (rate 0.1250 kg/ha, flooded paddy, post-transplant rice, 3-4 weeks after treatment); 6.0 in the series on ORYSAT (Rice, Tebonnet) [4] (rate 0.2500 kg/ha, flooded paddy, post-transplant rice, 3-4 weeks after treatment); 4.0 with ORYSAT (Rice, Tebonnet) [5] (0.1250 kg/ha, post-transplant rice, flooded paddy, rated 3-4 weeks after treatment); 6.0 in the series with ORYSAT (Rice, Tebonnet) [5] (0.2500 kg/ha, post-transplant rice, flooded paddy, rated 3-4 weeks after treatment). Moreover, the “Herbicidal rating CYPSE” value with CYPSE (Flatsedge) (0.1250 kg/ha) and with CYPSE (Flatsedge) (0.2500 kg/ha) was 0.0 in each case. Moreover, the figures for the “Herbicidal rating MOOVA” value with MOOVA (Monochoria) (rate 0.1250 kg/ha) and in the series on MOOVA (Monochoria) (rate 0.2500 kg/ha) were 3.0 and 6.0, respectively.
As for `CCOC(=O)CN1C(=O)C(=C(C)C)S/C1=N/c1cc(-n2c(=O)cc(C(F)(F)F)n(C)c2=O)c(F)cc1Cl` [Compound 20, Ethyl 2-{{2-chloro-5-[3,6-dihydro-3-methyl-2,6-dioxo-4-(trifluoromethyl)-1(2H)-pyrimidinyl]-4-fluorophenyl}imino}-5-isopropylidene-4-oxo-3-thiazolidineacetate], the “Herbicidal rating ECHORC” value in series [1] (0.1160 kg/ha), in series [1] (0.2310 kg/ha) and in series [1] (0.4630 kg/ha) was 7.0 in each case. Besides, the figures for the ECHCG herbicidal rating in the series on ECHCG (Barnyardgrass) (rate 0.0158 kg/ha), with ECHCG (Barnyardgrass) (rate 0.0315 kg/ha) and in the series with ECHCG (Barnyardgrass) (rate 0.0630 kg/ha) were 1.0, 1.0 and 2.0, respectively. Further, the “CHEAL preemergence herbicidal rating” value in series [2] (rate 0.0625 kg/ha), in series [2] (rate 0.1250 kg/ha) and in series [2] (rate 0.2500 kg/ha) was 9.0 each time. Also, the “ORYSAT preemergence herbicidal rating” value is given as 0.0 with ORYSAT (Rice, Tebonnet) [3] (rate 0.0625 kg/ha); 0.0 in the series with ORYSAT (Rice, Tebonnet) [3] (rate 0.1250 kg/ha); 0.0 with ORYSAT (Rice, Tebonnet) [3] (rate 0.2500 kg/ha). The “Herbicidal rating ORYSAT (rice tolerance)” value is reported as 2.0 in the series with ORYSAT (Rice, Tebonnet) [4] (in vivo) and 2.0 in the series with ORYSAT (Rice, Tebonnet) [5] (in vivo). Also, the “Herbicidal rating CYPSE” value in the series with CYPSE (Flatsedge) (0.1160 kg/ha), in the series on CYPSE (Flatsedge) (0.2310 kg/ha) and with CYPSE (Flatsedge) (0.4630 kg/ha) was 5.0 each time. Also, the “Herbicidal rating MOOVA” value with MOOVA (Monochoria) (rate 0.1160 kg/ha), with MOOVA (Monochoria) (rate 0.2310 kg/ha) and with MOOVA (Monochoria) (rate 0.4630 kg/ha) was 9.0 in each case.
Consider `CCOC(=O)CN1C(=O)C(=C2CCCC2)SC1=Nc1cc(-n2c(=O)cc(C(F)(F)F)n(C)c2=O)c(F)cc1Cl` [Compound 18, Ethyl 2-{{2-chloro-5-[3,6-dihydro-3-methyl-2,6-dioxo-4-(trifluoromethyl)-1(2H)-pyrimidinyl]-4-fluorophenyl}imino}-5-cyclopentylidene-4-oxo-3-thiazolidineacetate], for which the “Herbicidal rating ECHORC” value in series [1] (0.1160 kg/ha), in series [1] (0.2310 kg/ha) and in series [1] (0.4630 kg/ha) was 7.0 in each case. Further, the ECHCG herbicidal rating stood at 1.0 in the series with ECHCG (Barnyardgrass) (rate 0.0158 kg/ha), 1.0 in the series on ECHCG (Barnyardgrass) (rate 0.0315 kg/ha) and 2.0 with ECHCG (Barnyardgrass) (rate 0.0630 kg/ha). Moreover, the results for the “CHEAL preemergence herbicidal rating” value in series [2] (rate 0.1250 kg/ha) and in series [2] (rate 0.2500 kg/ha) were 8.0 and 9.0, respectively. The “ORYSAT preemergence herbicidal rating” value in the series with ORYSAT (Rice, Tebonnet) [3] (rate 0.1250 kg/ha) was 0.0; with ORYSAT (Rice, Tebonnet) [3] (rate 0.2500 kg/ha), 0.0. In addition, the “Herbicidal rating ORYSAT (rice tolerance)” value with ORYSAT (Rice, Tebonnet) [4] (in vivo) is on record as 3.0; in the series with ORYSAT (Rice, Tebonnet) [5] (in vivo) it was 3.0. Further, the entries for the “Herbicidal rating CYPSE” value in the series on CYPSE (Flatsedge) (0.1160 kg/ha), with CYPSE (Flatsedge) (0.2310 kg/ha) and with CYPSE (Flatsedge) (0.4630 kg/ha) were 0.0, 0.0 and 4.0, respectively. The “Herbicidal rating MOOVA” value in the series on MOOVA (Monochoria) (rate 0.1160 kg/ha), with MOOVA (Monochoria) (rate 0.2310 kg/ha) and in the series with MOOVA (Monochoria) (rate 0.4630 kg/ha) was 9.0 each time.
Consider `Cn1c(C(F)(F)F)cc(=O)n(-c2cc(/N=C3/SCC(=O)N3CC(=O)O)c(Cl)cc2F)c1=O` [Compound 52, 2-{{2-Chloro-5-[3,6-dihydro-3-methyl-2,6-dioxo-4-(trifluoromethyl)-1(2H)-pyrimidinyl]-4-fluoro-phenyl}imino}-4-oxo-3-thiazolidineacetic acid], for which the “Herbicidal rating ECHORC” value in series [1] (0.2500 kg/ha) turned out to be 0.0. The “Postemergence herbicidal rating ECHCG” value in the series with ECHCG (Barnyardgrass) (Rate 0.0158 kg/ha) came to 1.0; in the series with ECHCG (Barnyardgrass) (Rate 0.0315 kg/ha), 1.0; with ECHCG (Barnyardgrass) (Rate 0.0630 kg/ha) it was 4.0. Besides, the “Preemergence herbicidal rating CHEAL” value in series [2] (rate 0.0313 kg/ha) is 0.0; in series [2] (rate 0.0625 kg/ha), 6.0; in series [2] (rate 0.1250 kg/ha), 9.0; in series [2] (rate 0.2500 kg/ha), 9.0. Further, the “Preemergence herbicidal rating ORYSAT” value in the series with ORYSAT (Rice, Tebonnet) [3] (rate 0.0313 kg/ha) amounted to 0.0; with ORYSAT (Rice, Tebonnet) [3] (rate 0.0625 kg/ha), 0.0; in the series on ORYSAT (Rice, Tebonnet) [3] (rate 0.1250 kg/ha), 0.0; in the series on ORYSAT (Rice, Tebonnet) [3] (rate 0.2500 kg/ha) it was 4.0. Besides, the “Herbicidal rating ORYSAT (rice tolerance)” value turned out to be 0.0 in the series with ORYSAT (Rice, Tebonnet) [4] (in vivo) and 0.0 in the series on ORYSAT (Rice, Tebonnet) [5] (in vivo). Moreover, in the series on CYPSE (Flatsedge) (0.2500 kg/ha), the “Herbicidal rating CYPSE” value is listed as 0.0. Besides, in the series on MOOVA (Monochoria) (rate 0.2500 kg/ha), the “Herbicidal rating MOOVA” value turned out to be 4.0.

The values are drawn from US20020137929A1, “1 - (3-heterocyclylphenyl) isothiourea, -isourea, -guanidine and -amidine herbicidal agents” (Intellectual Property Department, BASF Aktiengesellschaft, priority 1998, published 2002).
